# Results taken from patent US9849151B2, “Salacia compositions, methods of treatment by their administration, and methods of their preparation” (priority 2013, dated 2017).
# Experiments:
# [1] = Antioxidant activity by DPPH assay; conditions: at 20 μM
# Protocol: The capacity of plant extracts or fractions to directly react with and quench free radicals was evaluated as described earlier (Cheng et al 2006). A stock solution of DPPH (200 μM) was prepared in ethanol. The assay was performed in 96-well plates. The reaction mixture, containing 100 μL of DPPH and 100 μL of test sample, was incubated at 37° C. for 30 min. The absorbance was measured at 515 nm. Gallic acid was used as a positive control. Percent DPPH radical scavenging activity was calculated as follows. [Reference: Cheng Z, Morre J, Yub L (2006) J Agric Food Chem, 54: 7429-7436] % radical scavenging activity=[1−(sample-blank)/(control-blank)]×100
# 3T3L1 cells = experiment: Lipolysis assay, glycerol release in 3T3L1 adipocytes; type: cell-based; conditions: 24 h, Salacia composition 100 ug/ml, isoproterenol 10 uM, ratio higher than 1.40 = enhances lipolysis
# Protocol: The assay is carried out to assess the ability of the extracts to breakdown triglycerides to glycerol and free fatty acids. The Salacia composition, such as that of Example 1 was screened for lipolysis in 3T3L1 cell model. 3T3L1 preadipocytes were cultured for a week in Dulbecco modified Eagle's medium (DMEM) supplemented with 10% new calf serum, 25 mM glucose, 2 mM glutamine, 100 U/ml penicillin, 100 ug/ml streptomycin at 37° C. in 5% CO2 atmosphere until 100% confluence. Two days after confluence, the differentiation of 3T3L1 into adipocytes was initiated using (DMEM) supplemented with 10% fetal bovine serum (FBS), 25 mM glucose, 2 mM glutamine, 100 U/ml penicillin, 100 ug/ml streptomycin and differentiation inducers (0.5 mM isobutyl-methylxanthine (IBMX), 10 μg/ml insulin and 1 μM dexamethasone) for 48 h (day 0-day 2). The cells were then cultured for another 48 h with the same medium containing only 10 μg/ml insulin (day 2 to day 4), then with only the medium (day 4 to day 6). The Salacia composition, such as that of Example 1 was added to the medium at the concentration 100 ug/ml for 24 h and assessed for lipolysis. […] The glycerol released after 24 h in the cell media was assessed using glycerol reagent (sigma) and expressed relative to the cellular protein content. The protein content was assessed using bicinchoninic acid (BCA) PierceTM kit. […]
# [2] = test system: Hormone Sensitive lipase (HSL); experiment: Hormone Sensitive Lipase assay, Western blot densitometry of adipocyte lysates; type: cell-based; conditions: 3T3L1 adipocytes treated 24 h, non-treated = 1.00
# Protocol: The glycerol released after 24 h in the cell media was assessed using glycerol reagent (sigma) and expressed relative to the cellular protein content. The protein content was assessed using bicinchoninic acid (BCA) PierceTM kit. […] Proteins were collected from cell lysates of 3T3L1 adipocytes treated for 24 h with the Salacia composition or isoproterenol. Protein samples were blotted and probed for total hormone sensitive lipase (HSL), and phosphorylated hormone sensitive lipase at […]. Then, the ratio of phosphorylated-HSL to total HSL was compared between treated and non-treated samples.
Compound,% radical scavenging activity (DPPH) [1],Glycerol/protein ratio (3T3L1 cells),Phospho-HSL (densitometry) ([2]; Serine 563),Ratio phosphorylated-HSL/Total HSL [2],Total HSL (densitometry) [2]
O=C(O)c1cc(O)c(O)c(O)c1 [Gallic acid],86%,,,,
CC(C)NCC(O)c1ccc(O)c(O)c1 (centres unmarked) [Isoproterenol],,1.50,2.63,1.01,2.60
